Test results published in US11857601B2, “Pharmaceutical composition for cancer treatment comprising fusion protein including IL-2 protein and CD80 protein and anticancer drug” (GI INNOVATION, INC., priority 2020, dated 2024).
“Also recorded” adds a separate entry of the source. Marks after values point to notes of the source that are not given here.

Key:
HCT116 cells = assay: Cancer cell killing, GI-101 and Cetuximab, HCT116 with NK cells; assay type: cell-based, human; details: GI-101 100 nM, Cetuximab 68.6 nM, 24 hours
Description: HCT116 cells were purchased from the Korea cell line bank and cultured in McCoy's 5A medium (ATCC) containing 10% FBS (Gibco) and 1% antibiotic/antifungal agent (Gibco). For use in cancer cell killing test, the cells were harvested using trypsin (Gibco), and then suspended in McCoy's 5A medium, and then dead cells and debris were removed using Ficoll (GE Healthcare Life Sciences) solution. The cells suspended in McCoy's 5A medium were carefully layered on ficoll solution. The cell layer with a low specific gravity formed by centrifuging at room temperature at 350×g for 20 minutes was collected with a pipette, washed with PBS (Gibco), and then centrifuged at room temperature at 350×g for 5 minutes. The separated cell layer was made into a suspension of 2×10^5 cells/mL with FBS-free RPMI1640 medium. […]
In order to identify the effect of killing the cells, a CytoTox Green reagent ([…] ™ CytoTox Green, Satorius) that binds to the DNA of cells to be killed was prepared in 1 μl per 1 mL of RPMI1640 medium containing 5% human AB serum (Sigma). The prepared medium was used for dilution of the test substance, and the effect of killing the cells could be quantitatively identified by staining the cells to be killed when the test substance was co-cultured with cancer cell lines and PBMCs. […]

[1] = target: T1, CTLA-4 expressed on effector T cells (Homo sapiens, UniProt P16410); assay: CTLA-4 blockade bioassay; assay type: cell-based; details: CTLA-4 effector cells + aAPC/Raji cells, 16 hours
T1 construct: host or cells: CTLA-4 effector cells of the kit, co-cultured with aAPC/Raji cells
Protocol: An experiment was performed using a CTLA-4 blockade bioassay kit (Promega cat No. JA4005). The experiment is briefly described as follows. CTLA-4 effector cells kept in liquid nitrogen were thawed in a 37° C. constant temperature water bath for 3 minutes, and 0.8 ml of CTLA-4 effector cells were mixed well with 3.2 ml of pre-warmed assay buffer (90% RPMI+10% fetal bovine serum). Then, the mixture was added to a 96-well white cell culture plate (SPL, cat No. 30196) at 25 μl per well. Then, 25 μl of GI101 at various concentrations was added thereto. For a negative control, 25 μl of assay buffer was added thereto. Then, the 96-well white cell culture plate was covered and placed at room temperature until aAPC/Raji cells were prepared.
aAPC/Raji cells kept in liquid nitrogen were thawed in a 37° C. constant temperature water bath for 3 minutes, and 0.8 ml of aAPC/Raji cells were mixed well with 3.2 ml of pre-warmed assay buffer. Then, 25 μl of the mixture was added to the plate at per well, and reaction was allowed to proceed in a 5% CO2 incubator at 37° C. for 16 hours. […] Reaction was allowed to proceed at room temperature for 10 minutes, and then luminescence was measured with Cytation 3 (BioTek instruments, Winooski, VT, USA). […]

CT-26 cancer cell line [2] = assay: mGI101 in mice transplanted with CT-26 (Exp. Ex. 15)
Protocol: BALB/c mice (female, 7-week-old) purchased from Orient Bio were subjected to an acclimation period of 7 days. Then, 5×10^6 cells of CT-26 cancer cell line (ATCC, USA) were mixed with 0.05 ml of […] ™ matrix phenol red-free (BD), and allotransplantation of the mixture was performed by subcutaneous administration at 0.1 ml in the right dorsal region of the mice. A certain period of time after the cancer cell transplantation, the tumor volume was measured and subjects that reached about 28 mm^3 were selected, and then the selected mice were grouped evenly based on tumor size and body weight, each group including 10 mice. Thereafter, using a disposable syringe (31G, 1 ml), hIgG4 was administered at a dose of 6 mg/kg to a negative control. For experimental groups, mGI101 at a dose of 3 mg/kg, 6 mg/kg, or 12 mg/kg was administered intravenously thereto. A total of three administrations were given once every three days after the first administration. The tumor size was measured daily.

[3] = test system: effector CD8+ T cells, NK cells, Treg cells; assay: Effect on mouse immune cells in spleen; assay type: in vivo, C57BL/6 mice; details: 3rd to 14th days after i.v. administration (3, 6 or 12 mg/kg), vs PBS
Protocol: On days 1, 3, 5, 7, and 14 after the injection, the spleen tissues were removed from the mice of each group. Thereafter, for the spleen tissue, the numbers of effector CD8+ T cells, NK cells, and Treg cells were calculated with FACS analysis using respective antibodies, and proportions of effector CD8+ T cells and NK cells with respect to Treg cells were respectively calculated. The information on the antibodies used in each cell analysis is as follows:
Effector CD8+ T cell: PB anti-mouse CD3ε antibody (Biolegend, #155612; KT3.1.1), FITC anti-mouse CD8α antibody (BD, #553031, 53-6.7), PE/Cy7 anti-mouse CD44 antibody (Biolegend, #103030; IM7), APC anti-mouse CD122 antibody (Biolegend, #123214; TM-β1)
NK cell: PB anti-mouse CD3ε antibody (Biolegend, #155612; KT3.1.1), PE anti-mouse NK-1.1 (Biolegend, #108708; PK136)
Treg cell: FITC anti-mouse CD3 antibody (Biolegend, #100204; 17A2), PB anti-mouse CD4 antibody (Biolegend, #100531; RM4-5), PE anti-mouse CD25 antibody (Biolegend, #102008; PC61), APC anti-mouse Foxp3 antibody (Invitrogen, #FJK-16s, 17-5773-82).

CT-26 cancer cell line [4] = assay: mGI101 in mice transplanted with CT-26 (Exp. Ex. 19); assay type: in vivo, BALB/c mice
TC1 cells = assay: mGI-101, Cisplatin, Pemetrexed and anti-PD-1 antibody, 1st line and maintenance therapy, TC1 tumor model; assay type: in vivo, C57BL/6 mice; details: mGI-101 3 mg/kg i.p. QW; compared with anticancer chemotherapeutic agent and anti-PD-1 antibody
Protocol: Mouse-derived lung cancer cell line, TC1, was purchased from ATCC (USA) and used for the test.
TC1 cells were cultured in RPMI1640 medium (Gibco) containing 10% FBS (Gibco) and 1% antibiotic/antifungal agent (Gibco). The cultured cells were harvested using trypsin (Gibco), and then 1×10^6 of TC1 cells were subcutaneously injected into the right flank of C57BL/6 female mice (7-week-old) in order to establish an allotransplanted tumor model.
The mice were randomly assigned based on tumor volume (˜100 mm^3), each group including 13 to 19 mice. The tumor grafts were identified about day 2 after cell inoculation.
The test was divided into the 1st line treatment and the anticancer maintenance therapy. […]
Clinical symptoms such as a disease and a behavioral change were observed once a day during the test period, and deceased animals were identified, and the mice were sacrificed when the tumor size reached a size of 4,000 mm^3. The size of the TC1 solid cancer was measured using a tumor 3D scanner (TM900, Peria, Belgium). […] The anti-tumor efficacy was evaluated as compared with the mouse IgG4 control. […]

[5] = test system: CT26 (mouse colon carcinoma) cells; assay: mGI-101 and Galunisertib in CT26 allotransplanted tumor model; assay type: in vivo, BALB/cAnHsd mice; details: mean ± SD, mGI-101 3 mg/kg IP, Galunisertib 75 mg/kg PO
Protocol: 6-week-old male BALB/cAnHsd mice were purchased and used for the test.
The tumor size was measured three times a week for 3 weeks from the day of start of administration of the test substance. The major axis and minor axis of the tumor were measured using a caliper, and the tumor size (tumor volume, TV) was calculated using the following equations. TV (mm^3)=(W^2×L)/2 [Equation 1]

[6] = 6 mg/kg i.v., vs negative control

T1 sequence (P16410 36-223): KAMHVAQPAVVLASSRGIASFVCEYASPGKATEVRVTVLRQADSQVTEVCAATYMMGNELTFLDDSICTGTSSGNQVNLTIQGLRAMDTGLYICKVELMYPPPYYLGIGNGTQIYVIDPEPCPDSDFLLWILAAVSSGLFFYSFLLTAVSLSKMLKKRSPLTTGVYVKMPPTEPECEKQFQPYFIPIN

Substance	level of killing cancer cells (HCT116 cells)	function of T cells (luminescence) [1]	Tumor growth inhibition (CT-26 cancer cell line [2]; 6 mg/kg and 12 mg/kg i.v., three administrations, vs negative control (hIgG4))	survival rate (CT-26 cancer cell line [2]; [6])	numbers of CD8+ T cells and NK cells [3]	tumor volume / tumor size (CT-26 cancer cell line [4]; [6])	tumor growth inhibition rate / anticancer efficacy (CT-26 cancer cell line [4]; compared with combination of mCD80 4.9 mg/kg and Fc-IL-2v (GI101C2) 2.8 mg/kg)	tumor inhibitory efficacy (CT-26 cancer cell line [4]; compared with respective mCD80 and IL-2v single formulations)	anticancer effect, anticancer maintenance therapy (TC1 cells)	Tumor size ([5]; Day 0) [mm^3]	Tumor growth inhibition ([5]; Day 2) [%]	Tumor size ([5]; Day 2) [mm^3]	Tumor growth inhibition ([5]; Day 4) [%]	Tumor size ([5]; Day 4)	Tumor growth inhibition ([5]; Day 7)	Tumor size ([5]; Day 7)
GI101: fusion protein: human CD80 fragment, Ig hinge, Fc domain, linker, IL-2 variant (2M) (R38A, F42A); SEQ ID NO: 9	high level of killing cancer cells	activats the function of T cells rather than inhibiting the same														
mGI101: fusion protein: mouse CD80, Ig hinge, Fc domain, linker, IL-2 variant (2M) (R38A, F42A); SEQ ID NO: 15			significant tumor growth inhibition	significant improvement	significant increase	significant inhibition of tumor size	excellent tumor growth inhibition rate; also recorded: excellent anticancer efficacy	had tumor inhibitory efficacy	as much anticancer effect as the group having received an anticancer chemotherapeutic agent and an anti-PD-1 antibody	61.96 ± 11.81	21.91 ± 53.41	177.83 ± 78.22	46.07 ± 35.1	224.56 ± 105.31** mm^3	46.48 ± 36.39 (9) %	291.81 ± 155.23 (9)* mm^3
